How the values were obtained:
[1] = test system: 3-hydroxy-3-methyl-glutaryl-CoA reductase (HMGCR); experiment: Liver HMGCR mRNA by real-time PCR in HF/HS diet-fed mice; format: in vivo, mouse; conditions: HF/HS diet-fed C57BL/6J mice; Yabukita 0.2% and/or eriodictyol 0.45 g/kg diet; 8 weeks; FIG. 6
Description: (§1) Male C57BL/6J mice at 12 weeks of age were preliminarily kept for 1 week and then divided into 5 groups such that the average body weight was equal in all groups, i.e., a control (AIN-93G-based diet) group, a HF/HS (high-fat high-sucrose diet) group, a Yabukita (0.2%) (HF/HS+Yabukita) group, an eriodictyol (HF/HS+eriodictyol) group, and a Yabukita+eriodictyol (HF/HS+Yabukita+eriodictyol) group. A feed supplemented with Yabukita (0.2%) and eriodictyol (0.45 g/kg diet) was given to the mice. The feed was given in an amount of 4 g/day and the mice were kept for 8 weeks under ad libitum drinking conditions. After being fasted for 16 hours, the mice were sacrificed by abdominal aortic puncture under isoflurane anesthesia. […] Yabukita and eriodictyol were examined for their effect on cholesterol metabolism-related gene expression in the liver of high-fat high-sucrose diet-fed obese model mice. C57BL/6J mice were preliminarily kept for 1 week and then divided into the respective groups such that the average body weight was equal in all groups. Each feed was given in an amount of 4 g/day and the mice were kept for 8 weeks under ad libitum drinking conditions. After being fasted for 16 hours, the mice were sacrificed by abdominal aortic puncture under isoflurane anesthesia.

[2] = test system: Human multiple myeloma cell line U266; experiment: Anticancer effect, viable cells by trypan blue assay (24-well plates, FIG. 14-19); format: cell-based; conditions: 5 μM each, 96 hours
Procedure: Human multiple myeloma cell line U266 was subcultured and maintained in RPMI 1640 medium supplemented with 10% fetal bovine serum (FCS) under conditions of 37° C. and water vapor-saturated 5% CO2. The cells were maintained in the logarithmic growth phase. The RPMI 1640 medium used for culture was prepared as follows: per liter of ultrapure water, RPMI 1640 medium (10.4 g), HEPES (2.38 g), injectable penicillin G potassium (100,000 units), streptomycin sulfate injectable (100 mg) and NaHCO3 (2.0 g) were suspended and then filter-sterilized. Then, the RPMI 1640 medium was supplemented with FCS and used for cell culture. Per liter of ultrapure water, NaCl (8.0 g), KCl (0.2 g), Na2HPO4 (1.15 g) and KH2PO4 (0.2 g) were dissolved to prepare PBS, which was then sterilized in an autoclave.
Eriodictyol and structural analogs thereof, i.e., naringenin and hesperetin, as well as glycosides thereof, i.e., eriocitrin, naringin and hesperidin were each adjusted to 5 mM with 100% dimethyl sulfoxide (DMSO) and stored at −30° C. EGCG and (−)-gallocatechin gallate (GCG) were each adjusted to 5 mM with ultrapure water and stored at −30° C. EGCG 3″Me was adjusted to 5 mM with 10% DMSO dH2O and stored at −30° C.
U266 adjusted to 5×10^4 cells/mL in RPMI 1640 containing 1% FCS, SOD (5 U/mL) and catalase (200 U/mL) was seeded in 24-well plates and cultured for 96 hours in the presence of EGCG and analogs thereof or eriodictyol and analogs thereof added at a final concentration of 5 μM each. After culture, viable cells were counted by trypan blue assay.
For statistical processing of the experimental results, Student's test was used and P<0.05 was considered statistically significant in comparison with control data in the vehicle group.

[3] = test system: 3-hydroxy-3-methylglutaryl-CoA synthase (HMCGS); experiment: Liver HMCGS mRNA by real-time PCR in HF/HS diet-fed mice; format: in vivo, mouse; conditions: HF/HS diet-fed C57BL/6J mice; Yabukita 0.2% and/or eriodictyol 0.45 g/kg diet; 8 weeks; FIG. 6
Description: as §1

[4] = test system: Human multiple myeloma cell line U266; experiment: Cancer cell death induction, viable cells by trypan blue assay (96-well plate, FIG. 9); format: cell-based; conditions: 96 hours, in combination with EGCG, EGCG 3″Me or green tea extract
Procedure: Human multiple myeloma cell line U266 was subcultured and maintained in RPMI 1640 medium supplemented with 10% FCS under conditions of 37° C. and water vapor-saturated 5% CO2. The cells were maintained in the logarithmic growth phase. The RPMI 1640 medium used for culture was prepared as follows: per liter of ultrapure water, RPMI 1640 medium (10.4 g), HEPES (2.38 g), injectable penicillin G potassium (100,000 units), streptomycin sulfate injectable (100 mg) and NaHCO3 (2.0 g) were suspended and then filter-sterilized.
The lemon peel extract used in the experiment was prepared as follows. Peels (100 g) were collected with a grater from 6 lemons and 100% EtOH (100 mL) was added thereto, followed by mashing with a mortar. The mashed mixture was further strained through gauze to remove fibers and then filtered by gravity using a #1 paper filter and a funnel to remove precipitates, followed by centrifugation at 12000×g to collect the supernatant. The resulting ethanol extract of lemon was evaporated with an evaporator to volatilize the solvent, thereby obtaining an ethanol-extracted lemon fraction. This ethanol-extracted lemon fraction was dissolved again in DMSO to give a lemon extract. […] After culture, viable cells were counted by trypan blue assay.
To evaluate the effect of combined use of EGCG or a structural analog thereof or an EGCG-containing naturally occurring product and eriodictyol or a structural analog thereof or an eriodictyol-containing naturally occurring product, human multiple myeloma cell line U266 was adjusted to 5×10^4 cells/mL and seeded in a 96-well plate, and then cultured for 96 hours in the presence of EGCG and eriodictyol added at a final concentration of 5 μM each. After culture for 96 hours, viable cells were counted by trypan blue assay.

caspase-3 = experiment: Caspase-3 activation in MPC-11 tumor sections (immunohistological staining); format: in vivo, mouse; conditions: MPC-11-implanted balb/c mice; EGCG 15 mg/kg i.p. and eriodictyol 15 mg/kg i.p.; after 6 hours; FIG. 13
Procedure: After female balb/c mice at 5 weeks of age were preliminarily kept for 2 weeks, a cell suspension of mouse multiple myeloma cell line MPC-11 suspended at 5×10^6 cells/mL in RPMI medium was implanted by subcutaneous injection in a volume of 200 μL into the right dorsal region of each mouse. At 11 days after implantation, the mice were administered […] with EGCG (15 mg/kg i.p.) and eriodictyol (15 mg/kg i.p.) and then sacrificed after 6 hours. Tumors were excised and tissue sections were prepared therefrom, followed by immunohistological staining to determine the number of cells where caspase-3 was activated. To examine the effect of eriodictyol on EGCG-induced activation of caspase-3 indicative of 67LR-dependent cancer cell death induction mechanism activity, female balb/c mice at 5 weeks of age were implanted with mouse multiple myeloma cell line MPC-11 by subcutaneous injection. At 11 days after implantation, the mice were administered with EGCG (15 mg/kg i.p.) and eriodictyol (15 mg/kg i.p.) and then sacrificed after 6 hours. Tissue sections were prepared from the excised tumors and evaluated for the activation state of caspase-3.

In the case of O=C1C[C@@H](c2ccc(O)c(O)c2)Oc2cc(O)cc(O)c21 [eriodictyol], the “mRNA expression level of HMGCR in the liver” value [1] is reported as “no effect”, the “enhancement of the anticancer effect (viable cells) of EGCG” value ([2]; combined with EGCG) is reported as “remarkably enhance the anticancer effect” and the “enhancement of the anticancer effect (viable cells) of EGCG 3″Me” value ([2]; combined with EGCG 3″Me) is reported as “remarkably enhance the anticancer effect”. The “enhancement of the anticancer effect (viable cells) of GCG” value ([2]; combined with GCG (gallocatechin gallate)) was “remarkably enhance the anticancer effect”, the “mRNA expression level of HMCGS in the liver” value [3] was “no effect” and the “enhancement of the anticancer effect (viable cells) of EGCG, EGCG 3″Me or a green tea extract” value [4] was “remarkably enhance the anticancer effect”. The “effect on EGCG-induced caspase-3 activation in tumors” value (caspase-3) was “remarkably enhance the ability of EGCG to induce caspase-3 activation”.

Reference: US10251408B2, “Catechin function enhancement method” (KYUSHU UNIVERSITY, NATIONAL UNIVERSITY CORPORATION, priority 2014, dated 2019)
